According to patent US20230310446A1, “RHO KINASE INHIBITION FOR TREATMENT OF PROLIFERATIVE VITREORETINOPATHY AND CONDITIONS ASSOCIATED WITH EPITHELIAL TO MESENCHYMAL TRANSITION” (The Schepens Eye Research Institute, Inc., priority 2020, published 2023):
“Also recorded” adds a separate entry of the source.

Key:
PVR explants [1] = test: Ex vivo model of PVR: outgrowth from PVR membrane explants embedded in Matrigel; type: cell-based, human; conditions: for explant outgrowths, inhibition of proliferation and migration: 1 μM, all time points
Protocol: PVR membranes were divided into pieces and embedded in growth factor reduced Matrigel (354,230; BD Biosciences, San Jose, CA) in a 24-well plate and placed at 37° C. for 30 min for the Matrigel to solidify. The specimens were treated with either vehicle or Rho kinase inhibitors, Netarsudil (60 nM), Ripasudil (300 nM), Fasudil (1 uM), and Y27632 (1 uM) in 500 μl in PVR growth media comprising: • 1) Endothelial base medium (EBM2; Lonza-CC-3156)+ • 2) EGM 2 SingleQuot Kit suppl. & Growth factors (Lonza; CC-4176)+ • 3) 10% fetal bovine serum (Atlanta Biologicals)+ • 4) 1% Penicillin/Streptomycin+1% L-Glutamine • *** The total FBS in the media is 12% (2% from SingleQuot+10% additional) Phase contrast images were taken using an EVOS FL imaging system (Life Technologies) and the distance of growth from the embedded tissue was quantified using Image J (National Institutes of Health). PVR membranes were obtained from human donors with PVR grade C undergoing surgery. Membrane fragments placed on a matrigel mount with PVR cell growth media and treated with Rho-Kinase inhibitors ripasudil (1 μM), netarsudil (1 μM), fasudil (1 μM), Y-27632 (1 μM) and control with no drug.

PVR explants [2] = test: as above; type: cell-based; conditions: ex vivo cultured explants of PVR tissue from human subjects
C-PVR cells [3] = test: TGF-β2 induced mesenchymal phenotypic change, phase images; type: cell-based, human; conditions: 1 uM, TGF-β2 10 ng/ml, day 3
Protocol: PVR cells were seeded in well plates for a period of 72 hours. Cells were pre-treated with rho-kinase inhibitors: ripasudil, netarsudil, fasudil and […] (1 uM) for 24 hours, then treated with TGF-β2 […], rho-kinase inhibitors (1 uM), and control with no drug, using triplicates for each condition. Changes in phenotype were examined via phase images at day 3.

C-PVR cells [4] = test: CyQUANT Direct Cell Proliferation Assay of primary PVR cultures; type: cell-based, human; conditions: 48 hours
Protocol: PVR cells were cultured and seeded into 96 well assay plates at 10,000 cells/well in complete growth media. […] Cell proliferation was assessed at 24, and 48 hour time points by CyQUANT® Direct Cell Proliferation Assay (Thermofisher Scientific) and compared to vehicle controls at 24, and 48 hours post treatment. The data was expressed as percent cell inhibition. […] Cell proliferation and cell death LDH levels were measured and quantified at 48 hours.

C-PVR cells [5] = test: LDH release cytotoxicity assay (CytoTox 96) of primary PVR cultures; type: cell-based, human; conditions: 48 hours
Protocol: Conditioned media was also collected at 24, and 48 hour time points for each condition, and percentage cell death was quantified by measuring LDH release using the CytoTox 96 Non-Radioactive Cytotoxicity Assay (Promega, Madison, WI, USA). As a positive control, the same number of cells maintained in parallel was lysed by two freeze—thaw cycles; the conditioned media were collected to measure the maximum LDH release. Percentage LDH release was calculated as 100%×(experimental LDH−spontaneous LDH)/(maximal LDH−spontaneous LDH).
PVR cells were cultured using Rho-Kinase inhibitors ripasudil, netarsudil, fasudil, Y-27632 at different concentrations (0.1 μM, 10 μM) and control with no drug. Cell proliferation and cell death LDH levels were measured and quantified at 48 hours.

C-PVR cells [6] = test: Cell migration of PVR cells quantified with phase images; type: cell-based, human; conditions: 1 μM
Protocol: PVR cells cultured using Rho-Kinase inhibitors ripasudil (1 μM), netarsudil (1 μM), fasudil (1 μM), Y-27632 (1 μM) and control with no drug. Cell migration was measured and quantified with phase images at 0, 3, 6, and 12 hours.

RhoA = RhoA pull down activation assay after TGF-β2 treatment; type: cell-based, human; conditions: C-PVR cells
Protocol: C-PVR cells were cultured and seeded in T-25 flasks at 1 million cells per flask. […] Cells were washed with ice-cold PBS and cell lysates were harvested with a cell scraper. Protein concentration of each time point was measured to ensure equal protein concentration. Using freshly prepared cell lysates, equivalent protein amounts (300-500 ug total protein) were added to 30 ul of rhotekin-RBD beads (Cytoskeleton, Denver, CO) for the […] pulldown assay. Pulldown assay supernatants were quantified using western blot analysis. An anti-RhoA primary antibody (Cytoskeleton, Denver, CO) was added and left overnight at 4° C., After primary antibody intubation, HRP labeled secondary antibody was added, following by addition on HRP detection reagent and intubated at room temperature for 5 minutes,
PVR cells cultured in T-25 flasks and treated with TGF-β2 […] at 80% confluence. […]

[7] = 7 days post embedding in Matrigel
[8] = 14 days post embedding in Matrigel

C[C@@H](N)[C@H]1CC[C@H](C(=O)Nc2ccncc2)CC1.Cl.Cl [Y-27632, (+)-(R)-trans-4-(1-aminoethyl)-N-(4-pyridyl)cyclohexanecarboxamide dihydrochloride]
explant outgrowths, inhibition of proliferation and migration (PVR explants [1]; listed as Y-2762, dihydrochloride): no outgrowths and almost complete inhibition of proliferation and migration
numbers of live cells in the explants (PVR explants [2]): significantly reduced
mesenchymal phenotypic change in TGF-β2 treated C-PVR cells (C-PVR cells [3]): slightly decreased

O=S(=O)(c1cccc2cnccc12)N1CCCNCC1 [fasudil, 1-(5-isoquinolinesulfonyl)-homopiperazine]
reduction of proliferation in C-PVR cells (C-PVR cells [4]; 0.1 μM (lowest concentration)): 24%
reduction of proliferation in C-PVR cells (C-PVR cells [4]; 1 μM (lower concentration)): 39%
reduction of proliferation in C-PVR cells (C-PVR cells [4]; 10 μM (highest concentration)): 20%
explant outgrowths, inhibition of proliferation and migration (PVR explants [1]): no outgrowths and almost complete inhibition of proliferation and migration
numbers of live cells in the explants (PVR explants [2]): significantly reduced
mesenchymal phenotypic change in TGF-β2 treated C-PVR cells (C-PVR cells [3]): slightly decreased
cell death detected by LDH analysis (C-PVR cells [5]; all concentrations (10-0.1 μM)): low levels of cell death
reduction of migration in C-PVR cells (C-PVR cells [6]): 40%

Cc1ccc(C(=O)OCc2ccc([C@@H](CN)C(=O)Nc3ccc4cnccc4c3)cc2)c(C)c1 [netarsudil]
reduction of proliferation in C-PVR cells (C-PVR cells [4]; 0.1 μM (lowest concentration)): 39%
reduction of proliferation in C-PVR cells (C-PVR cells [4]; 1 μM (lower concentration)): 37%
reduction of proliferation in C-PVR cells (C-PVR cells [4]; 10 μM (highest concentration)): 95%
explant outgrowth (PVR explants [1]; [7]): 4.2 mm
explant outgrowth (PVR explants [1]; [8]): 37 mm
cell death detected by LDH analysis (C-PVR cells [5]; all concentrations (10-0.1 μM)): dose dependent cell death
cell death detected by LDH analysis (C-PVR cells [5]; low concentrations (0.1 μM)): Low levels of cell death
reduction of migration in C-PVR cells (C-PVR cells [6]): 100%

C[C@H]1CNCCCN1S(=O)(=O)c1cccc2cncc(F)c12 [ripasudil, 4-fluoro-5-[[(2S)-2-methyl-1,4-diazepan-1-yl]sulfonyl]isoquinoline]
reduction of proliferation in C-PVR cells (C-PVR cells [4]; 0.1 μM (lowest concentration)): 21%
reduction of proliferation in C-PVR cells (C-PVR cells [4]; 1 μM (lower concentration)): 25%
reduction of proliferation in C-PVR cells (C-PVR cells [4]; 10 μM (highest concentration)): 44%
explant outgrowth (PVR explants [1]; [7]): 0.8 mm
explant outgrowth (PVR explants [1]; [8]): 15 mm
mesenchymal phenotypic change in TGF-β2 treated C-PVR cells (C-PVR cells [3]): slightly decreased
cell death detected by LDH analysis (C-PVR cells [5]; all concentrations (10-0.1 μM)): dose dependent cell death; also recorded: Low levels of cell death
reduction of migration in C-PVR cells (C-PVR cells [6]): 65%

B1: TGF-β2: Recombinant Human TGF-β2 growth factor (PeproTech) used as stimulus of EMT and RhoA activation (protein, UniProt P61812 303-414, looked up)
Transforming growth factor …: ALDAAYCFRNVQDNCCLRPLYIDFKRDLGWKWIHEPKGYNANFCAGACPYLWSSDTQHSRVLSLYNTINPEASASPCCVSQDLEPLTILYYIGKTPKIEQLSNMIVKSCKCS
RhoA activation, increase over control (RhoA; 15 minutes after stimulation): 1.5
RhoA activation, increase over control (RhoA; 30 minutes after stimulation): 2 fold
RhoA activation versus control (RhoA; 60 minutes after stimulation): slight decrease over control
